This assay concerns KCNQ channels. The assay can be described thus: Thallium flux assay for KCNQ channel openers. The format is cell-based. The conditions noted are these: HEK-293 cells stably transfected with a KCNQ family member; for EC50: thallium flux, 10 point concentration series; for Min conc. response: minimal active concentration: lowest concentration giving signal >= 4 SD of negative controls. How it is done:
Thallium Flux Assay for KCNQ Channel Openers.
The thallium assay is a modification of that published by Weaver and is referenced in its entirety (Weaver, C. D. WO 02/31508, 2002).
Approximately 20,000 cells/well of an HEK-293 cell line stably transfected with one of the members of the KCNQ family were plated into clear-bottom, black-walled, poly-D-lysine coated, 384 well assay plates in 20 μl/well of low chloride plating medium. Low chloride plating medium was composed of the following: sodium gluconate, 109 mM; potassium gluconate, 5.4 mM; hemi-calcium gluconate, 3.6 mM; magnesium sulfate, 0.8 mM; sodium bicarbonate, 26.2 mM; sodium phosphate monobasic, 1.2 mM; glutamine, 2 mM; glucose, 5 mM; 4-(2-hydroxyethyl)-1-piperazineethanesulfonic acid (HEPES) (pH 7.3) 10 mM, MEM vitamin solution (10× concentration of vitamins, Gibco/LifeTechnologies 11120-052) and MEM amino acid solution (1× concentration of amino acids, Gibco/LifeTechnologies 11130-051).
Following overnight incubation in a 5% CO2 incubator at 37° C., the cells in the plates were loaded with 20 μl/well of a dye loading solution containing the commercially available thallium-sensitive fluorescent dye BTC-AM, the acetomethoxy ester of BTC (see U.S. Pat. No. 5,501,980) (2 μM) and pluronic acid F-127 (Molecular Probes P 6867) (0.02% w/v) in chloride free assay buffer. Chloride free assay buffer was composed of the following: sodium gluconate, 140 mM; potassium gluconate, 2.5 mM; hemi-calcium gluconate, 6 mM; hemi-magnesium gluconate, 2 mM; glucose, 5 mM; HEPES (pH 7.3), 10 mM.
Following incubation in the dye loading solution for from 45-90 min at room temperature, the dye loading solution was removed by aspiration and replaced with 40 μl/well of chloride free assay buffer.
Prior to addition to cell plates, test compound and standard compounds were dissolved in DMSO to 3 mM concentration. Compounds were then diluted from the 3 mM stock to 100-fold over the final assay concentration in DMSO. Finally, compounds in DMSO were diluted from 100-fold over the final assay concentration to 5-fold over the final assay concentration in chloride free assay buffer.
Ten μl/well of compounds at 5-fold over the final assay concentration were then added to the cell plates. This represents a 1:5 dilution, yielding the final test concentration. The wells used for test compounds were A1-P20. Wells A21-P22 contained a standard opener and a maximally efficacious concentration (positive control). Wells A23-P24 contained chloride free assay buffer containing 1% DMSO (negative control).
Following addition of test compounds, the plates were loaded onto the Molecular Devices FLIPR. The 488 nm line of the argon laser was used to excite the BTC and the emission filter was a 540(+/−30) nm. Images were collected at 1 Hz. Ten seconds of baseline were collected and then the FLIPR was used to add 13 μl/well of a stimulus buffer composed of 7.5 mM Tl2SO4 in chloride free assay buffer. Images were collected for an additional 60 seconds.
For data analysis, the amplitude of the average of the negative controls was subtracted from all wells. The amplitudes of the test compounds were then compared to the value of four standard deviations of the negative control wells. The lowest concentration of a test compound sufficient to generate a signal amplitude greater than or equal to four standard deviations from the amplitude of the negative controls was defined as the minimal active concentration.
For generating EC50 values, compounds were serially diluted in 1:3 volume increments to produce a 10 point concentration series. EC50 values were calculated by fitting the resulting amplitudes to a single-site logistic equation. EC50 was defined as the concentration of test compound required to yield 50% of the maximal response. Maximal response (Maximal opening) was the largest signal amplitude divided by the negative control amplitude generated by any concentration of a test compound. […]

As a reminder, the EC50 is the concentration at which the effect is half-maximal. High values mean lower potency in that assay, low ones higher potency in that assay.

In turn, `CCC(CC)NCCc1nc(C(F)(F)F)c(C(=O)NC(C)c2cccc(OC(F)(F)F)c2)s1` (centres unmarked) [Example 33, 2-[2-(3-pentylamino)ethyl]-N-[1-[3-(trifluoromethoxy)phenyl]ethyl]-4-(trifluoromethyl)-5-thiazolecarboxamide] showed an EC50 of 1 to 20 µM.

As to `CCC(CC)NCCc1nc(C(F)(F)F)c(C(=O)NC(C)c2cccc(C(F)(F)F)c2)s1` (centres unmarked) [Example 34, 2-[2-(3-pentylamino)ethyl]-N-[1-[3-(trifluoromethyl)phenyl]ethyl]-4-(trifluoromethyl)-5-thiazolecarboxamide], the Min conc. response is 3 µM and the EC50 was 1 to 20 µM.

Consider `C[C@H](NC(=O)c1sc(CCNCc2ccco2)nc1C(F)(F)F)c1cccc(-c2cccnc2)c1` [Example 35, 2-[2-[(2-furanylmethyl)amino]ethyl]-N-[1-[3-(3-pyridinyl)phenyl]ethyl]-4-(trifluoromethyl)-5-thiazolecarboxamide], for which the Min conc. response is 10 µM and the EC50 is 1 to 20 µM.

Compound `CC(NC(=O)c1sc(CCNC2CCCC2)nc1C(F)(F)F)c1cccc(OC(F)(F)F)c1` (centres unmarked) [Example 36, 2-[2-(cyclopentylamino)ethyl]-N-[1-[3-(trifluoromethoxy)phenyl]ethyl]-4-(trifluoromethyl)-5-thiazolecarboxamide] had a Min conc. response of 30 µM and an EC50 of 1 to 20 µM.

Turning to `C[C@H](NC(=O)c1sc(CCNC2CCCC2)nc1C(F)(F)F)c1cccc(-c2cccnc2)c1` [Example 37], the Min conc. response stood at 30 µM and the EC50 was 1 to 20 µM.

Take `COCCN(CCOC)CCc1nc(C(F)(F)F)c(C(=O)NC(C)c2cccc(OC(F)(F)F)c2)s1` (centres unmarked) [Example 38]: the Min conc. response turned out to be 3 µM and the EC50 fell in the range of 1 to 20 µM.

`COCCN(CCOC)CCc1nc(C(F)(F)F)c(C(=O)NC(C)c2cccc(C(F)(F)F)c2)s1` (centres unmarked) [Example 39] yielded a Min conc. response of 3 µM and an EC50 of 1 to 20 µM.

`COCCN(CCOC)CCc1nc(C(F)(F)F)c(C(=O)N[C@@H](C)c2cccc(-c3cccnc3)c2)s1` [Example 40] displayed a Min conc. response of 30 µM and a concentration for a half-maximal effect (EC50) of 0.05 to 1 µM.

Turning to `CC(NC(=O)c1sc(C(O)CN2CCCCC2)nc1C(F)(F)F)c1cccc(OC(F)(F)F)c1` (centres unmarked) [Example 41, 2-[1-hydroxy-2-(1-piperidinyl)ethyl]-N-[1-[3-(trifluoromethoxy)phenyl]ethyl]-4-(trifluoromethyl)-5-thiazolecarboxamide], the Min conc. response stood at 30 µM and the EC50 lay within 1 to 20 µM.

In the case of `CC(NC(=O)c1sc(C(O)CN2CCCC2)nc1C(F)(F)F)c1cccc(C(F)(F)F)c1` (centres unmarked) [Example 42, 2-[1-hydroxy-2-(1-pyrrolidinyl)ethyl]-N-[1-[3-(trifluoromethyl)phenyl]ethyl]-4-(trifluoromethyl)-5-thiazolecarboxamide], the Min conc. response stood at 3 µM and the EC50 fell in the range of 0.05 to 1 µM.

As to `CC(NC(=O)c1sc(C(O)CN(C)Cc2ccco2)nc1C(F)(F)F)c1cccc(C(F)(F)F)c1` (centres unmarked) [Example 43, 2-[1-hydroxy-[2-(2-furanylmethyl)methylamino]ethyl]-N-[1-[3-(trifluoromethyl)phenyl]ethyl]-4-(trifluoromethyl)-5-thiazolecarboxamide], the Min conc. response is 3 µM and the EC50 was 0.05 to 1 µM.

Compound `CCCN(CC1CC1)CC(O)c1nc(C(F)(F)F)c(C(=O)NC(C)c2cccc(OC(F)(F)F)c2)s1` (centres unmarked) [Example 44] came in with a Min conc. response of 3 µM and an EC50 of 0.05 to 1 µM.

Turning to `C[C@H](NC(=O)c1sc(CCN2CCOCC2)nc1C(F)(F)F)c1cccc(N2CCOCC2)c1` [Example 45, 2-[2-(4-morpholinyl)ethyl]-N-[(1S)-1-[3-(4-morpholinyl)phenyl]ethyl]-4-(trifluoromethyl)-5-thiazolecarboxamide], the Min conc. response is 3 µM.

In turn, `CC(NC(=O)c1sc(CCN2CCSCC2)nc1C(F)(F)F)c1cccc(N(C)C)c1` (centres unmarked) [Example 46, N-[1-[3-(dimethylamino)phenyl]ethyl]-2-[2-(4-thiomorpholinyl)ethyl]-4-(trifluoromethyl)-5-thiazolecarboxamide] displayed a Min conc. response of 3 µM.

`CC(NC(=O)c1sc(CCN(C)CCN(C)C)nc1C(F)(F)F)c1cccc(N(C)C)c1` (centres unmarked) [Example 47, 2-[2-[[2-(dimethylamino)ethyl]methylamino]ethyl]-N-[1-[3-(dimethylamino)phenyl]ethyl]-4-(trifluoromethyl)-5-thiazolecarboxamide] came in with a Min conc. response of 0.3 µM.

Compound `C[C@H](NC(=O)c1sc(CCN2CCN(C)CC2)nc1C(F)(F)F)c1cccc(N2CCOCC2)c1` [Example 48, 2-[2-(4-methyl-1-piperazinyl)ethyl]-N-[(1S)-1-[3-(4-morpholinyl)phenyl]ethyl]-4-(trifluoromethyl)-5-thiazolecarboxamide] yielded a Min conc. response of 3 µM.

With `CCN(CC)CC(O)c1nc(C(F)(F)F)c(C(=O)N[C@@H](C)c2cccc(N3CCOCC3)c2)s1` (stereo partly drawn) [Example 49, 2-[2-(diethylamino)-1-hydroxyethyl]-N-[(1S)-1-[3-(4-morpholinyl)phenyl]ethyl]-4-(trifluoromethyl)-5-thiazolecarboxamide], the Min conc. response is 30 µM.

For the compound `CCN(CC)CC(O)c1nc(C(F)(F)F)c(C(=O)N[C@@H](C)c2cccc(-c3cccnc3)c2)s1` (stereo partly drawn) [Example 50, 2-[2-(diethylamino)-1-hydroxyethyl]-N-[(1S)-1-[3-(3-pyridinyl)phenyl]ethyl]-4-(trifluoromethyl)-5-thiazolecarboxamide], the Min conc. response came to 0.3 µM.

Compound `CC(NC(=O)c1sc(C(O)CN2CCOCC2)nc1C(F)(F)F)c1cccc(OC(F)(F)F)c1` (centres unmarked) [Example 51, 2-[1-hydroxy-2-(4-morpholinyl)ethyl]-N-[1-[3-(trifluoromethoxy)phenyl]ethyl]-4-(trifluoromethyl)-5-thiazolecarboxamide] showed a Min conc. response of 0.3 µM.

`CC(NC(=O)c1sc(C(O)CN2CCOCC2)nc1C(F)(F)F)c1cccc(C(F)(F)F)c1` (centres unmarked) [Example 52, 2-[1-hydroxy-2-(4-morpholinyl)ethyl]-4-(trifluoromethyl)-N-[1-[3-(trifluoromethyl)phenyl]ethyl]-5-thiazolecarboxamide] had a Min conc. response of 10 µM.

`CC(NC(=O)c1sc(C(O)CN2CCN(C)CC2)nc1C(F)(F)F)c1cccc(C(F)(F)F)c1` (centres unmarked) [Example 53, 2-[1-hydroxy-2-(4-methyl-1-piperazinyl)ethyl]-4-(trifluoromethyl)-N-[1-[3-(trifluoromethyl)phenyl]ethyl]-5-thiazolecarboxamide] had a Min conc. response of 30 µM.

As for `C[C@H](NC(=O)c1sc(C(O)CN2CCN(C)CC2)nc1C(F)(F)F)c1cccc(N2CCOCC2)c1` (stereo partly drawn) [Example 54, 2-[1-hydroxy-2-(4-methyl-1-piperazinyl)ethyl]-N-[(1S)-1-[3-(4-morpholinyl)phenyl]ethyl]-4-(trifluoromethyl)-5-thiazolecarboxamide], the Min conc. response was found to be 0.3 µM.

In turn, `C[C@H](NC(=O)c1sc(C(O)CN2CCN(C)CC2)nc1C(F)(F)F)c1cccc(-c2cccnc2)c1` (stereo partly drawn) [Example 55, 2-[1-hydroxy-2-(4-methyl-1-piperazinyl)ethyl]-N-[(1S)-1-[3-(3-pyridinyl)phenyl]ethyl]-4-(trifluoromethyl)-5-thiazolecarboxamide] returned a Min conc. response of 0.3 µM.

In turn, `CC(NC(=O)c1sc(C(O)CN2CCCCC2)nc1C(F)(F)F)c1cccc(C(F)(F)F)c1` (centres unmarked) [Example 56, 2-[1-hydroxy-2-(1-piperidinyl)ethyl]-4-(trifluoromethyl)-N-[1-[3-(trifluoromethyl)phenyl]ethyl]-5-thiazolecarboxamide] returned a Min conc. response of 30 µM.

(Values after patent US6933308B2 (Bristol-Myers Squibb Company, priority 2002, dated 2005).)
